One assay deals with T1, SMARCA4 (Homo sapiens, UniProt P51532).
T1 construct: SMARCA2 and SMARCA4 protein degradation in MV4-11 cells; endogenous in cells; host or cells: MV4-11
Put plainly: SMARCA4 Western blot MV4-11 degradation. Type of assay: cell-based. The following applies: 24 h; for Dmax: MV4-11, MV4-11 cells, read-out: SMARCA4 WB MV411 degradation 24 h: Average Dmax %; for DC50: MV4-11 cells, read-out: SMARCA4 WB MV411 degradation 24 h: Average external-Abs DC50. The method, boiled down: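 MV4-11 cells treated with compound for 24 h, lysed in RIPA with protease/phosphatase inhibitors, and SMARCA2 and SMARCA4 (BRG1) levels assessed by Western blot with β-actin loading control and LI-COR fluorescent read-out. Maximal degradation (Dmax %) after 24 h binned into letter codes.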
Background: Immunoblotting shows a protein as a band on a membrane.

The target in the next assay is SMARCA2 (Homo sapiens, UniProt P51531). Briefly: MSD SMARCA2 degradation in A549 cell line. It is filed as cell-based. The following applies: 24 h; for Dmax: A549, A549 cells; for DC50: A549 cells, read-out: SMARCA2 MSD A549 degradation 24 h: Average external-Abs DC50. In short, it runs like this:
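SMARCA2 remaining was measured by MSD electrochemiluminescence on RIPA lysates (anti-SMARCA2 plus SULFO-TAG anti-rabbit). Prior exposure: 24 h of A549 cells to a 10-point, 3-fold dilution series topping at 1000 nM final; Dmax % given as graded codes.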

What is called Dmax is the largest share of the target that was removed. A word on the DC50: it is the concentration giving 50% degradation.

Chain of SMARCA2 (P51531 whole entry): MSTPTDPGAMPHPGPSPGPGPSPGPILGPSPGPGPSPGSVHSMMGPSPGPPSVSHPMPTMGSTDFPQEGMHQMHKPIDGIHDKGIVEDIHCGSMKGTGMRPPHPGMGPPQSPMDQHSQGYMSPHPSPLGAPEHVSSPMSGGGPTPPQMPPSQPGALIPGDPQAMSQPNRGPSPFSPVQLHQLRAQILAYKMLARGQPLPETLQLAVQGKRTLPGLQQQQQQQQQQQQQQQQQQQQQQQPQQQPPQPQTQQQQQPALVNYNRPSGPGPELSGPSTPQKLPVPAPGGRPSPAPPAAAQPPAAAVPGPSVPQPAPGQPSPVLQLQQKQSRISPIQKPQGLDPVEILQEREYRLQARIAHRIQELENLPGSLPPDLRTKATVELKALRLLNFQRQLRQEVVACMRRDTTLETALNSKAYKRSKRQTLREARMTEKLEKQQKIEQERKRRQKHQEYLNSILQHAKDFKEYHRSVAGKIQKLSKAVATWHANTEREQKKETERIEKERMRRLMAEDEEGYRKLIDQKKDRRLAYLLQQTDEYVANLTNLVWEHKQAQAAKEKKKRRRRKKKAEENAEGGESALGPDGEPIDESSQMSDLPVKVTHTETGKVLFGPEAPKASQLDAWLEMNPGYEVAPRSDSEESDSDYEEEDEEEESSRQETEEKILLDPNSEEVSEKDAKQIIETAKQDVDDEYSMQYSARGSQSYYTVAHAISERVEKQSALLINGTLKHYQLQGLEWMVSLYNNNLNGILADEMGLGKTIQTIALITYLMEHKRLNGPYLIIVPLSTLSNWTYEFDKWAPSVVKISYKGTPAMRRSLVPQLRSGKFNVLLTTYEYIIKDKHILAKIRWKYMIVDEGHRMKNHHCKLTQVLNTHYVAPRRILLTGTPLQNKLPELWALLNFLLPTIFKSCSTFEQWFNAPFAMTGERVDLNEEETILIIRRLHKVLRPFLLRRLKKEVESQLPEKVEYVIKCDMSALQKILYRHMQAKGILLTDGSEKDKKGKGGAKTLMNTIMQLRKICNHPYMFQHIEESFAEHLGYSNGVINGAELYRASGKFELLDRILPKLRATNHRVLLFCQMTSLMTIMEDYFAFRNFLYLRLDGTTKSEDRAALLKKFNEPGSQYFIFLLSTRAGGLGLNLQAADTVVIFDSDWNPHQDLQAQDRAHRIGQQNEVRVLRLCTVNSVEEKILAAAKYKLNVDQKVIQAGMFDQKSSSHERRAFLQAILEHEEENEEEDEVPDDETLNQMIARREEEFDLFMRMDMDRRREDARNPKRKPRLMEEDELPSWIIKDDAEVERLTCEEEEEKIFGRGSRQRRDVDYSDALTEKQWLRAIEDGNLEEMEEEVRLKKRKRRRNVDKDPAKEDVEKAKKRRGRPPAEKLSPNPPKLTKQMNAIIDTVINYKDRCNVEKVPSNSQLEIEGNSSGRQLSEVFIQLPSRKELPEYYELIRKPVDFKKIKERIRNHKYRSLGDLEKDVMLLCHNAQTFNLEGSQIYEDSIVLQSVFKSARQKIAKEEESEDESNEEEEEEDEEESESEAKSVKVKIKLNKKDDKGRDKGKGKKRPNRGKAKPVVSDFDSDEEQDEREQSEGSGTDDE
T1 sequence (P51532 whole entry): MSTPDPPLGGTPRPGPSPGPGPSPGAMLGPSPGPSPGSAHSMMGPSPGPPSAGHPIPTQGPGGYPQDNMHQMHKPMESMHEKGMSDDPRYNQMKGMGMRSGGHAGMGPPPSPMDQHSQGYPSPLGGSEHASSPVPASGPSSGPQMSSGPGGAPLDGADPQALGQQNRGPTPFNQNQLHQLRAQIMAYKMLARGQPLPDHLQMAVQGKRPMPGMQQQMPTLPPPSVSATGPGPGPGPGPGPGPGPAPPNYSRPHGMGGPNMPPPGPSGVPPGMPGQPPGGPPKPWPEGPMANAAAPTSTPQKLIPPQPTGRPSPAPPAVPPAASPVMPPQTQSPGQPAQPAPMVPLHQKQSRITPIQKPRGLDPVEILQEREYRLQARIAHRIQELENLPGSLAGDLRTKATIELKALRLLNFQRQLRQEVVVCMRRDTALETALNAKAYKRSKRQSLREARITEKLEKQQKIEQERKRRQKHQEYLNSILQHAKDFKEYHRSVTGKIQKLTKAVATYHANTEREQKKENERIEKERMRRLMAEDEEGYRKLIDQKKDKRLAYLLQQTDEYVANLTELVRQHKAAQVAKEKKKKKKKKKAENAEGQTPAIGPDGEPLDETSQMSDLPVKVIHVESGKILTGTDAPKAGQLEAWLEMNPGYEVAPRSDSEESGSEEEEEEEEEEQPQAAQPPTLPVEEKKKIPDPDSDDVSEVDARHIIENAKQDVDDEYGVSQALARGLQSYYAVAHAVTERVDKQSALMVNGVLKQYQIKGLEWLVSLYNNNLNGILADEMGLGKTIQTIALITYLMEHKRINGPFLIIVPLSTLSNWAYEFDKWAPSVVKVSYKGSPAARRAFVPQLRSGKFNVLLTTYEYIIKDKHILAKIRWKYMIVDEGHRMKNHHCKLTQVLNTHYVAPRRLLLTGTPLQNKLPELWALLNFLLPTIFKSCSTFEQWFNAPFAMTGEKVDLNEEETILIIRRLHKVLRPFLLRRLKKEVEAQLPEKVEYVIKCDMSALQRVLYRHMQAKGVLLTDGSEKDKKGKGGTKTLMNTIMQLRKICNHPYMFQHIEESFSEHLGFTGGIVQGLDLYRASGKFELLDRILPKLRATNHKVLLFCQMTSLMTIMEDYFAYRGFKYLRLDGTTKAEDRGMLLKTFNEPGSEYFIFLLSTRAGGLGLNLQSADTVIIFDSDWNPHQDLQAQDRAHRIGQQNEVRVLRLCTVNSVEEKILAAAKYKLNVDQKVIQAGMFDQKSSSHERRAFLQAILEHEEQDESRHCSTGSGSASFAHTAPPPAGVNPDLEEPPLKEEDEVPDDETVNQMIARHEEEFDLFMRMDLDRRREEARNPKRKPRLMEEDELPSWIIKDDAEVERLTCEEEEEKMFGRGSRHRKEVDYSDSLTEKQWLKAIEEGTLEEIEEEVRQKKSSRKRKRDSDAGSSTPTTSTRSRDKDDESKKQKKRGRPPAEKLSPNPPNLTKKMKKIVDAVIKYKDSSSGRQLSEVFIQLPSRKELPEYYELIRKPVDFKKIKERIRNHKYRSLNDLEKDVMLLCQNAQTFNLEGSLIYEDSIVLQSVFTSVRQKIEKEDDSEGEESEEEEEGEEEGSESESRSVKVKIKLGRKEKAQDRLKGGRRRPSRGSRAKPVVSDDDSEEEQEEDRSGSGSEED

`Cc1ncsc1-c1ccc(CNC(=O)[C@@H]2C[C@@H](O)CN2C(=O)[C@@H](NC(=O)c2ccc(C#CCCCN3CCC(Cn4cc(-c5cc(-c6ccccc6O)nnc5N)cn4)CC3)cc2)C(C)(C)C)cc1` [I-506]: on SMARCA4, the Dmax was > 90% and the DC50 was < 100 nM. For the same compound, at SMARCA2, the Dmax was > 90% and the half-maximal degradation concentration (DC50) fell in the range of 100 to 500 nM.
Take `Nc1nnc(-c2ccccc2O)cc1-c1cnn(C2CCN(C3CCC(Nc4ccc5c(c4)C(=O)N(C4CCC(=O)NC4=O)C5=O)CC3)CC2)c1` (stereo not shown) [I-323]: on SMARCA4, the Dmax is > 90% and the DC50 was < 100 nM. Further, at SMARCA2, the Dmax was > 90% and the DC50 is < 100 nM.
Turning to `Cn1c(=O)n(C2CCC(=O)NC2=O)c2ccc(CCCN3CCC(c4nccc(N5C6CCC5CN(c5cc(-c7ccccc7O)nnc5N)C6)n4)CC3)cc21` (stereo not shown) [I-278], at SMARCA4, the Dmax is > 90% and the DC50 is < 100 nM. Also, at SMARCA2, the Dmax was > 90% and the DC50 is < 100 nM.
In the case of `COc1ccccc1-c1cc(N2CC3CCC(C2)N3c2ncc(C3CCN(CCCc4ccc5c(c4)n(C)c(=O)n5C4CCC(=O)NC4=O)CC3)cn2)c(N)nn1` (stereo not shown) [I-326], on SMARCA4, the greatest degradation seen (Dmax) lay in the range of 50 to 70% and the DC50 was 100 to 500 nM. Further, at SMARCA2, the Dmax was < 50% and the DC50 is > 1000 nM.
For `Nc1nnc(-c2ccccc2O)cc1-c1cnn(C2CCN(C3CCC(Nc4cccc5c4C(=O)N(C4CCC(=O)NC4=O)C5=O)CC3)CC2)c1` (stereo not shown) [I-322], in that order: > 90%, < 100 nM, > 90% and < 100 nM.
The matching figures for `Cc1ncsc1-c1ccc(CNC(=O)[C@@H]2C[C@@H](O)CN2C(=O)[C@@H](NC(=O)c2ccc(CCCCCN3CCC(Cn4cc(-c5cc(-c6ccccc6O)nnc5N)cn4)CC3)cc2)C(C)(C)C)cc1` [I-505]: > 90%, 100 to 500 nM, > 90% and 100 to 500 nM.
`Cc1cc(CC(=O)N[C@H](C(=O)N2C[C@H](O)C[C@H]2C(=O)NCc2ccc(-c3scnc3C)cc2)C(C)(C)C)ccc1-c1cnc(N2C3CCC2CN(c2cc(-c4ccccc4O)nnc2N)C3)nc1` [I-345]: the Dmax at SMARCA4 and on SMARCA2 was > 90% throughout. For the same compound, the DC50 at SMARCA4 and on SMARCA2 was < 100 nM each time.
Consider `Cc1ncsc1-c1ccc(CNC(=O)[C@@H]2C[C@@H](O)CN2C(=O)[C@@H](NC(=O)[C@@H](C)N2CCC(c3cnc(N4C5CCC4CN(c4cc(-c6ccccc6O)nnc4N)C5)nc3)CC2)C(C)(C)C)cc1` [I-482], for which the values for the Dmax on SMARCA4 and on SMARCA2 were > 90% and 70 to 90%, respectively. The DC50 on SMARCA4 was > 1000 nM; at SMARCA2 it was 501 to 1000 nM.
For `Cc1ncsc1-c1ccc(CNC(=O)[C@@H]2C[C@@H](O)CN2C(=O)[C@@H](NC(=O)CCN(C)CC#Cc2cnc(N3C4CCC3CN(c3cc(-c5ccccc5O)nnc3N)C4)nc2)C(C)(C)C)cc1` [I-496], in that order: > 90%, 70 to 90%, < 100 nM and 501 to 1000 nM.
For `Cc1ncsc1-c1ccc(CNC(=O)[C@@H]2C[C@@H](O)CN2C(=O)C(N(C)C(=O)C[C@H]2CC[C@H](N3CCC(c4cnc(N5C6CCC5CN(c5cc(-c7ccccc7O)nnc5N)C6)nc4)CC3)CC2)C(C)(C)C)cc1` (stereo partly shown) [I-388], in that order: 70 to 90%, > 90%, < 100 nM and 100 to 500 nM.
With `Nc1nnc(-c2ccccc2O)cc1N1CC2CCC(C1)N2c1ncc(C2CCN(CCCNC(=O)COc3ccc4c(c3)CCCN4C(=O)CCl)CC2)cn1` [I-523, N-[3-[4-[2-[3-[3-amino-6-(2-hydroxyphenyl)pyridazin-4-yl]-3,8-diazabicyclo[3.2.1]octan-8-yl]pyrimidin-5-yl]-1-piperidyl]propyl]-2-[[1-(2-chloroacetyl)-3,4-dihydro-2H-quinolin-6-yl]oxy]acetamide], on SMARCA4, the Dmax was > 90% and the half-maximal degradation concentration (DC50) is > 1000 nM. On SMARCA2, the Dmax is < 50% and the 50% degradation concentration (DC50) is > 1000 nM.
For the compound `Cc1ncsc1-c1ccc(CNC(=O)[C@@H]2C[C@@H](O)CN2C(=O)[C@@H](NC(=O)[C@H]2CC[C@@H](N3CCC(n4cc(-c5cc(-c6ccccc6O)nnc5N)cn4)CC3)CC2)C(C)(C)C)cc1` [I-360], at SMARCA4, the Dmax fell in the range of 50 to 70% and the DC50 is > 1000 nM. At SMARCA2, the Dmax was < 50% and the DC50 was > 1000 nM.
On to `Nc1nnc(-c2ccccc2O)cc1N1CC2CCC(C1)N2c1ncc(C2CCN(CCCCCNC(=O)COc3ccc4c(c3)CCCN4C(=O)CCl)CC2)cn1` [I-524], for which, at SMARCA4, the Dmax is 70 to 90% and the DC50 was > 1000 nM. Further, at SMARCA2, the Dmax was < 50% and the DC50 is > 1000 nM.
With `Cc1ncsc1-c1ccc(CNC(=O)[C@@H]2C[C@@H](O)CN2C(=O)[C@@H](NC(=O)N[C@H]2CC[C@H](c3cnc(N4C5CCC4CN(c4cc(-c6ccccc6O)nnc4N)C5)nc3)CC2)C(C)(C)C)cc1` [I-333], the greatest degradation seen (Dmax) on SMARCA4 was > 90%; at SMARCA2, < 50%. In addition, the half-maximal degradation concentration (DC50) on SMARCA4 was < 100 nM; on SMARCA2 it was > 1000 nM.
The matching figures for `Cc1ncsc1-c1ccc(CNC(=O)[C@@H]2C[C@@H](O)CN2C(=O)[C@@H](NC(=O)CCCCN2CCC[C@H](Cn3cc(-c4cc(-c5ccccc5O)nnc4N)cn3)C2)C(C)(C)C)cc1` [I-480]: < 50%, < 50%, > 1000 nM and > 1000 nM.
In the case of `Cc1ncsc1-c1ccc(CNC(=O)[C@@H]2C[C@@H](O)CN2C(=O)[C@@H](NC(=O)[C@H]2CC[C@H](N3CCC(n4cc(-c5cc(-c6ccccc6O)nnc5N)cn4)CC3)CC2)C(C)(C)C)cc1` [I-361], the Dmax at SMARCA4 was < 50%; at SMARCA2, 50 to 70%. Moreover, the DC50 was > 1000 nM on SMARCA4 and 501 to 1000 nM on SMARCA2.
For `Cc1ncsc1-c1ccc(CNC(=O)[C@@H]2C[C@@H](O)CN2C(=O)[C@@H](NC(=O)N[C@H]2CC[C@@H](c3cnc(N4C5CCC4CN(c4cc(-c6ccccc6O)nnc4N)C5)nc3)CC2)C(C)(C)C)cc1` [I-334], in that order: > 90%, 70 to 90%, < 100 nM and 501 to 1000 nM.
For `Cc1ncsc1-c1ccc(CNC(=O)[C@@H]2C[C@@H](O)CN2C(=O)[C@@H](NC(=O)Cc2ccc(N3CCC(n4cc(-c5cc(-c6ccccc6O)nnc5N)cn4)CC3)cc2)C(C)(C)C)cc1` [I-516], in that order: < 50%, < 50%, > 1000 nM and > 1000 nM.
Regarding `Cc1ncsc1-c1ccc(CNC(=O)[C@@H]2C[C@@H](O)CN2C(=O)[C@@H](NC(=O)C[C@H]2CC[C@H](c3cnc(N4C5CCC4CN(c4cc(-c6ccccc6O)nnc4N)C5)nc3)CC2)C(C)(C)C)cc1` [I-332], the Dmax at SMARCA4 and at SMARCA2 was > 90% in each case. Moreover, the 50% degradation concentration (DC50) on SMARCA4 and at SMARCA2 was < 100 nM in each case.
Consider `Cc1ncsc1-c1ccc(CNC(=O)[C@@H]2C[C@@H](O)CN2C(=O)[C@@H](NC(=O)N2CCN(C(=O)c3cnc(N4C5CCC4CN(c4cc(-c6ccccc6O)nnc4N)C5)nc3)CC2)C(C)(C)C)cc1` [I-343], for which, at SMARCA4, the maximal degradation (Dmax) is > 90% and the DC50 lay in the range of 100 to 500 nM. For the same compound, at SMARCA2, the Dmax is < 50% and the DC50 is > 1000 nM.
For `Cc1ncsc1-c1ccc(CNC(=O)[C@@H]2C[C@@H](O)CN2C(=O)[C@@H](NC(=O)CCCCCC2CCC(N3CCC(Cn4cc(-c5cc(-c6ccccc6O)nnc5N)cn4)CC3)CC2)C(C)(C)C)cc1` (stereo partly shown) [I-330], in that order: 70 to 90%, < 100 nM, > 90% and 100 to 500 nM.
For `Cc1ncsc1-c1ccc(CNC(=O)[C@@H]2C[C@@H](O)CN2C(=O)[C@@H](NC(=O)CC2CCC(N3CCC(c4cnc(N5C6CCC5CN(c5cc(-c7ccccc7O)nnc5N)C6)nc4)CC3)CC2)C(C)(C)C)cc1` (stereo partly shown) [I-511], in that order: > 90%, < 100 nM, > 90% and 100 to 500 nM.
Take `Cc1ncsc1-c1ccc(CNC(=O)[C@@H]2C[C@@H](O)CN2C(=O)[C@@H](NC(=O)C2CCC(CCCCCN3CCC(Cn4cc(-c5cc(-c6ccccc6O)nnc5N)cn4)CC3)CC2)C(C)(C)C)cc1` (stereo partly shown) [I-504]: on SMARCA4, the Dmax is > 90% and the DC50 lay in the range of 100 to 500 nM. Further, on SMARCA2, the greatest degradation seen (Dmax) is > 90% and the DC50 was in the range of 100 to 500 nM.
For the compound `Cc1ncsc1-c1ccc(CNC(=O)[C@@H]2C[C@@H](O)CN2C(=O)[C@@H](NC(=O)C(=O)N2CCC(c3cnc(N4C5CCC4CN(c4cc(-c6ccccc6O)nnc4N)C5)nc3)CC2)C(C)(C)C)cc1` [I-344], at SMARCA4, the Dmax is 50 to 70% and the DC50 was > 1000 nM. On SMARCA2, the Dmax is < 50% and the DC50 is > 1000 nM.
With `Nc1nnc(-c2ccccc2O)cc1-c1cnn(C2CCN([C@H]3CC[C@@H](CNc4ccc5c(c4)C(=O)N(C4CCC(=O)NC4=O)C5=O)CC3)CC2)c1` (stereo partly shown) [I-281, 5-((((1s,4s)-4-(4-(4-(3-amino-6-(2-hydroxyphenyl)pyridazin-4-yl)-1H-pyrazol-1-yl)piperidin-1-yl)cyclohexyl)methyl)amino)-2-(2,6-dioxopiperidin-3-yl)isoindoline-1,3-dione], on SMARCA4, the greatest degradation seen (Dmax) was > 90% and the DC50 was < 100 nM. At SMARCA2, the Dmax was > 90% and the DC50 is < 100 nM.

(Values after patent US12624044B2, “SMARCA degraders and uses thereof” (Kymera Therapeutics, Inc., priority 2019, dated 2026).)
